Measurements: ChEMBL document CHEMBL5247642, “Structural Optimization of Fibroblast Growth Factor Receptor Inhibitors for Treating Solid Tumors” (J Med Chem, 2023)
≈ marks a conversion by molar mass, not a printed value. Calls of active or inactive are those of the source. No cut-off for these calls is given here.

What was measured:
[1] = target: Fibroblast growth factor receptor 2 (Homo sapiens, UniProt P21802); experiment: Inhibition of FGFR2 (unknown origin) using Poly (Glu,Tyr) 4:1 as substrate incubated for 60 mins in presence of ATP by ELISA analysis
Fibroblast growth factor receptor 2 (Homo sapiens, UniProt P21802), sequence (P21802 whole entry): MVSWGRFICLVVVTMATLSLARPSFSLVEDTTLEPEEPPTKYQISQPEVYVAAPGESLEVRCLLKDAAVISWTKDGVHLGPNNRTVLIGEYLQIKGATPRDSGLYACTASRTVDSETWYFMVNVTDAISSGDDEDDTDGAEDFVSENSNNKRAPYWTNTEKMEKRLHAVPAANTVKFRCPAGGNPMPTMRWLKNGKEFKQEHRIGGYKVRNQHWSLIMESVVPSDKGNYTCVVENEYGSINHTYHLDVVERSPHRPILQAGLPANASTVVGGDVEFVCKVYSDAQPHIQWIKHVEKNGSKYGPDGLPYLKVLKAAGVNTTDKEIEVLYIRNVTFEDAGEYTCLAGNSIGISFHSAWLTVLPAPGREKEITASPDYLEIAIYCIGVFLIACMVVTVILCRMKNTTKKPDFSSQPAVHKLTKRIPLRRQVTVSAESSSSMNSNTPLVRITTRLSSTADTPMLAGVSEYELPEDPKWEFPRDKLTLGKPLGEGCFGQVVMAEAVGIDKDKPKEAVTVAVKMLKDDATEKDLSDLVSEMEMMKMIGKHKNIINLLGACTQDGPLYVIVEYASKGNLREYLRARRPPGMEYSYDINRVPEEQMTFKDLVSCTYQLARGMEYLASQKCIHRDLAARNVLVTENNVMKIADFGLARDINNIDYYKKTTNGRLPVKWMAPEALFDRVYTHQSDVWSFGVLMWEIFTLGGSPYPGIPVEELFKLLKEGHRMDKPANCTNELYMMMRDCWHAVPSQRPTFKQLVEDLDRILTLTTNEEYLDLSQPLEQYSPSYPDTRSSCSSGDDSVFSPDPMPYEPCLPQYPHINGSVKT

[2] = target: Fibroblast growth factor receptor 3 (Homo sapiens, UniProt P22607); experiment: Inhibition of FGFR3 (unknown origin) using Poly (Glu,Tyr) 4:1 as substrate incubated for 60 mins in presence of ATP by ELISA analysis
Fibroblast growth factor receptor 3, sequence (P22607 whole entry): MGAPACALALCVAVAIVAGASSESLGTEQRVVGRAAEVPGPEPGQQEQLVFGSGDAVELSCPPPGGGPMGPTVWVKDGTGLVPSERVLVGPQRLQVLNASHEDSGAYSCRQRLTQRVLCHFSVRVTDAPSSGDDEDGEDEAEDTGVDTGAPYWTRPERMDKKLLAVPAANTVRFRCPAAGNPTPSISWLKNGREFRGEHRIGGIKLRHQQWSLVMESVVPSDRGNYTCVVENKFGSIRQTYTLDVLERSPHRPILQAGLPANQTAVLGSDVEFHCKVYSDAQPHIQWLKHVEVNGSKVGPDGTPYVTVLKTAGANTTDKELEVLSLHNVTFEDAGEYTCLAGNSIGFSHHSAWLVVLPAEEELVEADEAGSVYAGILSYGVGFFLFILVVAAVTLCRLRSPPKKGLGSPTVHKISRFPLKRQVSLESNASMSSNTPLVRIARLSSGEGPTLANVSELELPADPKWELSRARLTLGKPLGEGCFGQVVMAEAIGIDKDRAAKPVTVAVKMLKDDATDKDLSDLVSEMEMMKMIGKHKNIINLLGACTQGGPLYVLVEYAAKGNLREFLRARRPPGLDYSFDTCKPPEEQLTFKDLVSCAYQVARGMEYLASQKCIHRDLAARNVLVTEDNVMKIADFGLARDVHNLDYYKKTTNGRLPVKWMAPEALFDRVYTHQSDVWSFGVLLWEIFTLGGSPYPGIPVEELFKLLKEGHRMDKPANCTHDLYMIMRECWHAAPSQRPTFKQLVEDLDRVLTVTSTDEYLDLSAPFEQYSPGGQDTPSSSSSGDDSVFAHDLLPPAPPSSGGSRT

[3] = Solubility of compound in PBS at pH 7.4 at 1 to 100 microg/ml by laser nephelometry analysis; assay type: physicochemical; conditions: dose 1-100 µg/ml
[4] = Stability in rat whole blood assessed as parent compound remaining measured upto 5 hrs by LC-MS/MS analysis; assay type: ADME, tissue-based
[5] = Stability in rat whole blood assessed as parent compound remaining measured after 2 hrs by LC-MS/MS analysis; assay type: ADME, tissue-based; conditions: read-out: Stability
[6] = target: T1, Fibroblast growth factor receptor (Homo sapiens) (UniProt P22607+P11362+P22455+P21802); experiment: Inhibition of FGFR signalling in human SNU-16 assessed as inhibition of PLCgamma phosphorylation at 0.1 nM incubated for 2 hrs by Western blot analysis; assay type: cell-based
T1 sequence (P11362 whole entry, looked up): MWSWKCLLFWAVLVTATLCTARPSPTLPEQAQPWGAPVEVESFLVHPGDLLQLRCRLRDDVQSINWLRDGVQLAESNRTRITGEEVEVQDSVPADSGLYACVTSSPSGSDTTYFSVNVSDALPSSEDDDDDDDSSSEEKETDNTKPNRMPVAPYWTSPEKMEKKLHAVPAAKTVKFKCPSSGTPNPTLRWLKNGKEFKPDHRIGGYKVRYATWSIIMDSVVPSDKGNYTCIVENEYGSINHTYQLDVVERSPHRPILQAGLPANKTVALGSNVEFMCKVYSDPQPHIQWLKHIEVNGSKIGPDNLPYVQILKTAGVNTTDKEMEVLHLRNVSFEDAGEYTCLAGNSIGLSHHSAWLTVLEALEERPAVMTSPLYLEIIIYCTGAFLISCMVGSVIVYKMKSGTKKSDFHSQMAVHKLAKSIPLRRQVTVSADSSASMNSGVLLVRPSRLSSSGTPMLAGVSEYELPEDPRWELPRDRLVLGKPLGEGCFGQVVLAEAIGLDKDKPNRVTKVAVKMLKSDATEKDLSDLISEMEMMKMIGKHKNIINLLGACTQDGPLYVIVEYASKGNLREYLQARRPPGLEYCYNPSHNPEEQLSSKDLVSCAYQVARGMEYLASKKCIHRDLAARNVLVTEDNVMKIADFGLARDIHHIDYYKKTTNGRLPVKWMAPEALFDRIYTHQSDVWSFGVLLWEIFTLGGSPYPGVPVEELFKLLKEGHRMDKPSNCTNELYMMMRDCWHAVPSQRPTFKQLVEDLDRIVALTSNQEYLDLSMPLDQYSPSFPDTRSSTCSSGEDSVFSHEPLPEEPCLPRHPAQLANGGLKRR
T1 sequence (P21802 whole entry, looked up): as the sequence (P21802 whole entry) above
T1 sequence (P22455 whole entry, looked up): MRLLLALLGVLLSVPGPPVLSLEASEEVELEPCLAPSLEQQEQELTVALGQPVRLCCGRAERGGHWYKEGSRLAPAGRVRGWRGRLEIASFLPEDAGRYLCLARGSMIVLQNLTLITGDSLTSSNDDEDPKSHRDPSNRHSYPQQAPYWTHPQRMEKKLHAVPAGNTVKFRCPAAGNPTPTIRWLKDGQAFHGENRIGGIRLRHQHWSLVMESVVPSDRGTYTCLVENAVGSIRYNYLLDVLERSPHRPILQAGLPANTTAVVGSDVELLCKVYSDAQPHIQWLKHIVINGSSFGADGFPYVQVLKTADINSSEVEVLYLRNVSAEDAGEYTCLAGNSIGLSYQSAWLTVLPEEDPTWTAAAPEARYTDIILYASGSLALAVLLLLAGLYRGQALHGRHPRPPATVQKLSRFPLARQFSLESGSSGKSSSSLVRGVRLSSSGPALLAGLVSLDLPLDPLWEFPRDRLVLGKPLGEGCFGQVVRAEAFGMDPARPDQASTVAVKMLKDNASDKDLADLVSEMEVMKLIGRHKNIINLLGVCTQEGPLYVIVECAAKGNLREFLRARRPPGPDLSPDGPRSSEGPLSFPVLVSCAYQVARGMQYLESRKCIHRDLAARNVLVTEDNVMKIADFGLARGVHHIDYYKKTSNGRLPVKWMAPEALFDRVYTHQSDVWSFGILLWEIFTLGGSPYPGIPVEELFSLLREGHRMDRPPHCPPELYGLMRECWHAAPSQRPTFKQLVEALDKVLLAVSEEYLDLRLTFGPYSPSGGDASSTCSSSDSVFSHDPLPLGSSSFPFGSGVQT
T1 sequence (P22607 whole entry, looked up): as the sequence (P22607 whole entry) above

[7] = target: T1, Fibroblast growth factor receptor (Homo sapiens); experiment: Inhibition of FGFR phosphorylation in human SNU-16 cells at 5 nM measured after 24 hrs; assay type: cell-based
[8] = target: Voltage-gated inwardly rectifying potassium channel KCNH2 (Homo sapiens, UniProt Q12809); experiment: Inhibition of hERG expressed in CHO cells at -80 mV holding potential by automated patch clamp method; assay type: toxicity, cell-based
[9] = target: Vascular endothelial growth factor receptor 1 (Homo sapiens) (UniProt P17948); experiment: Inhibition of VEGFR1 (unknown origin) at 1 uM using Poly (Glu,Tyr) 4:1 as substrate incubated for 60 mins in presence of ATP by ELISA analysis relative to control
[10] = target: Fibroblast growth factor receptor 2 (Homo sapiens, UniProt P21802, N549H); experiment: Inhibition of human recombinant FGFR2 N549H mutant (456 to 770 residues) using GGEEEEYFELVKK as substrate incubated for 40 mins presence of [gamma-33P]-ATP by radiometric based scintillation counter assay
Fibroblast growth factor receptor 2 (Homo sapiens, UniProt P21802, N549H), sequence (P21802 22-821 N549H limits assumed): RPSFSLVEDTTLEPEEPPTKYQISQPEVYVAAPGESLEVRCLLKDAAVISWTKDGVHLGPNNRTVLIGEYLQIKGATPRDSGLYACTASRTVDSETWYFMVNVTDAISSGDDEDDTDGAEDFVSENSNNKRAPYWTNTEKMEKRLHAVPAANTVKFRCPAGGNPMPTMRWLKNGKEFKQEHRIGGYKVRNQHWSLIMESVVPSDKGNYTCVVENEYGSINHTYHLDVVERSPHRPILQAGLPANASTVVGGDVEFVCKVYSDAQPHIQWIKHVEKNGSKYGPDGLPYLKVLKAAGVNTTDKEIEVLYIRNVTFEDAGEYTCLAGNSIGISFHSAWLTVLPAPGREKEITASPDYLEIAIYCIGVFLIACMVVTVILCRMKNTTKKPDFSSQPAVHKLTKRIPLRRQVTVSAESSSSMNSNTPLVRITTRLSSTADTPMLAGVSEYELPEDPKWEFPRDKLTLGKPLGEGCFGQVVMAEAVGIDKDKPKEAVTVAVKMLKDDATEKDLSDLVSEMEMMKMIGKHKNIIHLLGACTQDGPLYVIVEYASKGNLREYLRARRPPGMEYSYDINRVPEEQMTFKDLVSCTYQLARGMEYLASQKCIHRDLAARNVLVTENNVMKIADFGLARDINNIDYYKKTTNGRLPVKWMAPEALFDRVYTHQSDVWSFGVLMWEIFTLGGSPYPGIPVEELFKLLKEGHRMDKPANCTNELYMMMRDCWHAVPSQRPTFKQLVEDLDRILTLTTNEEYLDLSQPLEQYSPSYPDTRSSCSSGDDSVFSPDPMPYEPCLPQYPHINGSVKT

[11] = target: Fibroblast growth factor receptor 2 (Homo sapiens, UniProt P21802, V564F); experiment: Inhibition of FGFR2 V564F mutant (unknown origin)
Fibroblast growth factor receptor 2 (Homo sapiens, UniProt P21802, V564F), sequence (P21802 22-821 V564F limits assumed): as the sequence (P21802 22-821 N549H limits assumed) above, with H528N, V543F counted along it

NCI-H1581 = experiment: Antiproliferative activity against human NCI-H1581 cells expressing FGFR1 assessed as reduction in cell viability measured after 72 hrs; assay type: functional, cell-based; conditions: NCI-H1581, 72 h
NCI-H522 = experiment: Antiproliferative activity against human NCI-H522 cells assessed as reduction in cell viability measured after 72 hrs; assay type: functional, cell-based; conditions: NCI-H522, 72 h
NCI-H2228 = experiment: Antiproliferative activity against human NCI-H2228 cells assessed as reduction in cell viability measured after 72 hrs; assay type: functional, cell-based; conditions: NCI-H2228, 72 h
NCI-H1666 = experiment: Antiproliferative activity against human NCI-H1666 cells assessed as reduction in cell viability measured after 72 hrs; assay type: functional, cell-based; conditions: NCI-H1666, 72 h
NCI-H526 = experiment: Antiproliferative activity against human NCI-H526 cells assessed as reduction in cell viability measured after 72 hrs; assay type: functional, cell-based; conditions: NCI-H526, 72 h
HCC4006 = experiment: Antiproliferative activity against human HCC4006 cells assessed as reduction in cell viability measured after 72 hrs; assay type: functional, cell-based; conditions: HCC4006, 72 h
SU.86.86 = experiment: Antiproliferative activity against human SU-86-86 cells assessed as reduction in cell viability measured after 72 hrs; assay type: functional, cell-based; conditions: SU.86.86, 72 h
Hs746T = experiment: Antiproliferative activity against human Hs746T cells assessed as reduction in cell viability measured after 72 hrs; assay type: functional, cell-based
CAPAN-1 = experiment: Antiproliferative activity against human CAPAN-1 cells assessed as reduction in cell viability measured after 72 hrs; assay type: functional, cell-based; conditions: CAPAN-1, 72 h
ASPC1 = experiment: Antiproliferative activity against human ASPC1 cells assessed as reduction in cell viability measured after 72 hrs; assay type: functional, cell-based; conditions: ASPC1, 72 h
BXPC-3 = experiment: Antiproliferative activity against human BXPC-3 cells assessed as reduction in cell viability measured after 72 hrs; assay type: functional, cell-based; conditions: BXPC-3, 72 h
HCC78 = experiment: Antiproliferative activity against human HCC78 cells assessed as reduction in cell viability measured after 72 hrs; assay type: functional, cell-based; conditions: HCC78, 72 h
NCI-H441 = experiment: Antiproliferative activity against human NCI-H441 cells assessed as reduction in cell viability measured after 72 hrs; assay type: functional, cell-based; conditions: NCI-H441, 72 h
NCI-H3122 = experiment: Antiproliferative activity against human NCI-H3122 cells assessed as reduction in cell viability measured after 72 hrs; assay type: functional, cell-based; conditions: NCI-H3122, 72 h
NCI-H1299 = experiment: Antiproliferative activity against human NCI-H1299 cells assessed as reduction in cell viability measured after 72 hrs; assay type: functional, cell-based; conditions: NCI-H1299, 72 h
NCI-H520 = experiment: Antiproliferative activity against human NCI-H520 cells assessed as reduction in cell viability measured after 72 hrs; assay type: functional, cell-based; conditions: NCI-H520, 72 h
BaF3 = experiment: Antiproliferative activity against mouse BaF3 cells assessed as reduction in cell viability measured after 72 hrs; assay type: functional, cell-based; conditions: BaF3, 72 h
[12] = AUC (0 to t) in CD-1 mouse at 3 mg/kg, po measured after 24 hrs by LC-MS/MS analysis; assay type: ADME, organism-based; parameters: time 24 hrs, dose 3 mg/kg, route po; conditions: in vivo
[13] = AUC (0 to infinity) in CD-1 mouse at 1 mg/kg, iv measured after 24 hrs by LC-MS/MS analysis; assay type: ADME, organism-based; parameters: dose 1 mg/kg, time 24 hrs, route iv; conditions: in vivo
[14] = MRT in CD-1 mouse at 3 mg/kg, po measured after 24 hrs by LC-MS/MS analysis; assay type: ADME, organism-based; conditions: in vivo
[15] = MRT in CD-1 mouse at 1 mg/kg, iv measured after 24 hrs by LC-MS/MS analysis; assay type: ADME, organism-based; conditions: in vivo
[16] = Half life in CD-1 mouse at 3 mg/kg, po measured after 24 hrs by LC-MS/MS analysis; assay type: ADME, organism-based; conditions: in vivo
[17] = Half life in CD-1 mouse at 1 mg/kg, iv measured after 24 hrs by LC-MS/MS analysis; assay type: ADME, organism-based; conditions: in vivo
[18] = target: Fibroblast growth factor receptor 4 (Homo sapiens, UniProt P22455); experiment: Inhibition of FGFR4 (unknown origin)
Fibroblast growth factor receptor 4, sequence (P22455 whole entry): as the sequence (P22455 whole entry, looked up) above

NCI-H716 = experiment: Antitumor activity against human NCI-H716 cells xenografted in nude mouse assessed as tumor growth inhibition at 200 mg/kg, po administered once daily for 18 days by microcaliper analysis relative to control; assay type: functional; parameters: scale not given: the % may be the effect or the level left; conditions: time 18 day
[19] = target: T2, Fibroblast growth factor receptor 1 (Homo sapiens, UniProt P11362); conditions: dose 100.0 nM, time 60.0 min
T2 sequence (P11362 22-822 limits assumed): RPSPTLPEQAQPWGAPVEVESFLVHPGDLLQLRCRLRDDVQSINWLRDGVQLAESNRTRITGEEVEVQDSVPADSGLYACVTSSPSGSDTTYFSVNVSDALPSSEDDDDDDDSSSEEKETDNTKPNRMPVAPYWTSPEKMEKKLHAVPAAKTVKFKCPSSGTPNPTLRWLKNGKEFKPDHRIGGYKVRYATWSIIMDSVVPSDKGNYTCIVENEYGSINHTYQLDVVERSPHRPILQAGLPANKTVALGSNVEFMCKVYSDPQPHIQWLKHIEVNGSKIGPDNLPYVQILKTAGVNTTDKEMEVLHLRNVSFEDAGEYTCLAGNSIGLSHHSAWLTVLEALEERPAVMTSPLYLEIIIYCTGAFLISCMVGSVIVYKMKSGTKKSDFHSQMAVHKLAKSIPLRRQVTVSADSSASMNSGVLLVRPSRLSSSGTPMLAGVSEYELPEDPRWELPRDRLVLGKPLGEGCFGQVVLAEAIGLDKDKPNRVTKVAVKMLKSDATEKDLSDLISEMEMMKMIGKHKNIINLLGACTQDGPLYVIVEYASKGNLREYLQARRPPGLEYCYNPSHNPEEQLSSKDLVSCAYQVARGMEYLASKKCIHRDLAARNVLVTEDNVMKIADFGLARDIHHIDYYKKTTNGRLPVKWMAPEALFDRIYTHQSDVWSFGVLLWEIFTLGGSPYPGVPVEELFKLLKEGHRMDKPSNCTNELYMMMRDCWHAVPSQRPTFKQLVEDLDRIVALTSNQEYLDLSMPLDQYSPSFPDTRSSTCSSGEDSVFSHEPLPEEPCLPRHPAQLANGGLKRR

[20] = target: T2, Fibroblast growth factor receptor 1; conditions: dose 10.0 nM, time 60.0 min
[21] = target: T2, Fibroblast growth factor receptor 1; conditions: dose 1.0 nM, time 60.0 min

IC50 [1]: 0.0136 µM | IC50 [2]: 0.0526 µM | solubility kinetic [3]: 50 µg/mL (≈ 116 µM) | Stability [4]: Stable | remaining at 2 h [5]: > 40% | inhibition [6]: Active | inhibition [7]: Active | inhibition [9]: < 50% | IC50 [10]: 0.016 µM | IC50 [11]: 2.86 µM | IC50 (NCI-H1581): 0.0549 µM | IC50 (NCI-H522): > 10 µM | IC50 (NCI-H2228): > 10 µM | IC50 (NCI-H1666): > 10 µM | IC50 (NCI-H526): > 10 µM | IC50 (HCC4006): > 10 µM | IC50 (ASPC1): > 10 µM | IC50 (BXPC-3): > 10 µM | IC50 (HCC78): > 10 µM | IC50 (NCI-H441): > 10 µM | IC50 (NCI-H3122): > 10 µM | IC50 (NCI-H1299): > 10 µM | IC50 (NCI-H520): > 10 µM | IC50 (BaF3): > 10 µM | AUC(0-t) at 24 h [12]: 70.2 ng·h/mL | AUC [13]: 116 ng·h/mL | MRT [14]: 69.6 min | MRT [15]: 15.1 min | half-life [16]: 55.9 min | half-life [17]: 37.5 min | IC50 [18]: 0.0061 µM | inhibition [19]: 102% | inhibition [20]: 80.9% | inhibition [21]: 37.6%
SMILES: C=CC(=O)N1CCCC(n2nc3c(=O)[nH]nc(N)c3c2-c2oc3ccc(C)cc3c2C)C1 (centres undefined)
IC50 [8]: 17.2 µM | IC50 (SU.86.86): > 10 µM | IC50 (Hs746T): > 10 µM | IC50 (CAPAN-1): > 10 µM | Activity (NCI-H716): 83.5%
